Laboratory results reported in patent US6849607B2, “Galectin recognized photosensitizers for photodynamic therapy” (Health Research, Inc., priority 2001, dated 2005).

Assays:
[1] = system: Molt-4 human leukemic T-cells; assay: In vitro photosensitizing efficacy in Molt-4 cells (MTT); type: cell-based; conditions: Molt-4 cells; for effect of free lactose on PDT efficacy of the photosensitizer: photosensitizer with lactose in a ratio of 1:100, without washing
Description: Both cell lines are known to have some expression for Galectin-1 ([…]., Baum, L. G. and Brewer, C. F., Multivalent Protein-carbohydrate Interactions. A New […] for Super Molecular Assembly and Signal Transduction, Biochemistry, 40:3009-3015, 2001). The Molt-4 cells were grown in RPMI 1640 5% FCS (Fetal calf serum) in 100% humidity with 5% CO2. Cells were transferred to phenol red free (PRF) RPMI 1640 media with 1% FCS and plated at 2.5×10^4 cells/well. After 3 hours incubation in the dark, the cells were washed once with PBS and re-suspended in prf RPMI 1640 with 1% FCS. These cells were then illuminated with a […] Quartz Halogen Lamp with IR and bandpass dichroic filters to allow light between 400 nm-700 nm, at a dose rate of 16 mW/cm^2 at 695 nm. The RIF tumor cells were grown in alpha-DMEM with 10% fetal calf serum, penicillin and streptomycin. Cells were maintained in 5% CO2, 95% air and 100% humidity. […] After overnight incubation to allow the cells to attach the photosensitizers 14 were individually added at variable concentrations. After a 3 hr incubation in the dark at 37° C., the cells were washed once with PBS, then irradiated with the same light source as above (Molt-4 procedure), and the optimal cell kill was obtained at a concentration of 1.0 μM. After PDT the cells were washed once and placed in complete media and incubated for 48 hrs. […] Louis, Mo.) was added to each well (Kessel, D., Luo, Y., Photodynamic Therapy: A Mitochondrial Inducer of Apoptosis, Cell Death Differ. 6:28-35, 1999; MacDonald, I., Morgan, […]., Litchfield, D. J. Dougherty, T. J., Subcellular Localization Patterns and their Relationship to Photodynamic Activity of Pyropheophorbide-a Derivatives, Photochem. Photobiol., 70, 789-997, 1999). After 4 hr incubation at 37° C. the MTT+media were removed and 100 μl DMSO was added to solubilize the formazin crystals. The 96-well plate was read on a microtiter plate reader (Miles Inc. Titertek Multiscan Plus MK II) at an absorbance of 560 nm. The results were plotted as percent survival of the corresponding dark (drug no light) control for each compound tested. Each data point represents the mean from 3 separate experiments, and the error bars are the standard deviation. Each experiment was done with 5 replicate wells. […] The cells were then washed once with phosphate buffer saline (PBS), carbohydrate conjugates were then added, and the cells were again incubated for an additional 3 hrs. After treating with light, the cells were re-suspended in fresh media and incubated for 48 hrs. MTT was added to the cells and incubated for an additional 4 hrs. Dimethylsulfoxide (100 μl) was then added to each well to dissolve the formazin crystals. The plates were read on a 96 well plate reader at an absorbance of 560 nm. The data are in replicates of 6 wells and are normalized to control cells (light, no drug). In another set of experiments, a similar procedure was followed, except, the cells were not washed before the light treatment. […] Louis, Mo.) was added to the cells and incubated for an additional 4 hrs. Dimethylsulfoxide (100 μl) was then added to each well to dissolve the formazin crystals. The plates were read on a 96 well plate reader (Miles Inc. Titertek Multiscan Plus MK II) at an absorbance of 560 nm. The data are in replicates of 6 wells and are normalized to control cells (light, no drug).

[2] = system: J774A.1 cells; assay: In vitro photosensitizing efficacy in J774A.1 cells, high Gal-1 expression (MTT); type: cell-based
Description: (§1) For determining photosensitizing efficacy in B16-F1 and J774A.Cell were plated at 1×10^4 and 2×10^4 cells per well respectively in 96 well plates. After overnight incubation, compounds 1 and 4 at the same concentration (0-2 μM) were added. After further 3 hr incubation, cells were washed with PBS and irradiated with white light (0-4 joules). […] The cells were then incubated in complete media for 48 hrs and assayed for survival using the standard MTT assay.

[3] = system: B16-F1 cells; assay: In vitro photosensitizing efficacy in B16-F1 cells, low Gal-1 expression (MTT); type: cell-based; conditions: free lactose (100 μM)
Description: as §1

[4] = system: RIF tumors; assay: In vivo photosensitizing efficacy (tumor re-growth assay) in mice bearing RIF tumors; design: species or system C3H/HEJ mice; conditions: 5.0 μM/kg; for mice tumor free on day 90: light 24 h post-injection, 6 mice/group; for mice tumor free on day 90 / in vivo PDT efficacy (in words): no free lactose
Description: Both conjugated and non-conjugated photosensitizers (1-4) were evaluated for their in vivo tumor response in C3H mice implanted with RIF tumors. In brief, C3H/HEJ mice were injected intradermally with 2×10^5 RIF cells in 30 μl HBSS w/o Ca^+2 and magnesium, into the flank and allowed to grow until they were 4-5 mm in diameter. The day before tumors were treatment size, the mice were injected with 0-5 μlmoles/kg of compounds 1-4. At 24 hours post-injection the mice were anesthetized with Ketamine and Xylazine, and restrained on plastic holders, treated with laser light from an argon pumped dye laser at 700 nm for a total fluence of 135 J/cm^2 at a fluence rate of 75 mW/cm^2. The mice (6 mice/group) were checked daily, the tumors were measured using two orthogonal measurements L and W (perpendicular to L) and the volumes were calculated using the formula V=LxW ^2/2 and recorded. Mice were considered cured if there was no palpable tumor at 90 days post PDT treatment.

[5] = system: J774A.1 cells; assay: Photosensitizer uptake in J774A.1 cells (fluorescence/μg protein); type: cell-based; conditions: 1.0 μM, 3 and 24 hrs
Description: In order to test the galectin-specificity of the carbohydrate conjugates, the uptake and photosensitizing efficacy of photosensitizers 1 and 4 was investigated in two cell lines; B16-F1 and J774A.1 known for low (15-20%) and high galectin-expression (80-85%) respectively 37. The cells were grown in DMEM with 10% FCS, maintained in 5% CO2, 95% air and 100% humidity. For uptake studies 1×10^6 cells were plated in 60 mm dishes. […] The cells were then gently removed from the dishes, 1.0 ml aliquots were transferred into 1 cm quartz cuvettes and their fluorescence was read on a PT1model ALBHA1 fluorimeter, at 701 nm using an excitation of wavelength of 414 nm. Protein determinations were done using Bio-rad protein assay, protein levels were determined from a standard curve. The data was represented as fluorescence/μg protein.

With `C=C(C=CCO[C@@H]1O[C@H](CO)[C@@H](O[C@@H]2O[C@H](CO)[C@H](O)[C@H](O)[C@H]2O)[C@H](O)[C@H]1O)CN1C(=O)c2c3nc(cc4[nH]c(cc5nc(cc6[nH]c2c(c6C)C1=O)C(CC)=C5C)c(CC)c4C)C(C)C3CCC(=O)OC` (mixture of isomers) [4a, Lactose-Chlorin conjugate joined with diene linkage] the “in vitro photosensitizing efficacy (in words)” value ([1]; 2.0 μM, 2a, 3a compared to 1a, 4a compared to 2a and 3a) was “better pbotosensitizer”, the “effect of free lactose on PDT efficacy of the photosensitizer” value [1] was “complete inhibition in PDT efficacy” and the “PDT efficacy on addition of free lactose” value ([2]; free lactose (100 μM)) was “almost completely inhibited”. For the same molecule, the “phototoxicity compared to photosensitizer 1a” value ([2]; high Gal-1 expression (80-85%), 1.0 μM) was “enhanced phototoxicity”, the “PDT efficacy on addition of free lactose” value [3] was “almost completely inhibited” and the “in vivo PDT efficacy, lactose injected immediately following the drug” value ([4]; free lactose 100-fold excess) was “significant decrease in PDT efficacy”. For the same molecule, the “in vivo PDT efficacy, lactose injected 1 hour prior to light treatment” value ([4]; lactose 23 hr post-injection of the conjugate) was “quite effective”, the “mice tumor free on day 90” value [4] was 3/6 and the “mice tumor free on day 90” value ([4]; listed as 4) was “Three out of six”. The “in vivo PDT efficacy (in words)” value [4] was “quite effective” and the drug uptake [5] was “increased uptake”.
“Mesopurpurin-18-N-methyl-(2′-butadiene)imide [1a]” was tested, and the “effect of free lactose on PDT efficacy of the photosensitizer” value [1] was “did not produce any change in photocytotoxic ability”, the “in vivo PDT efficacy with and without lactose administration” value [4] was “ineffective” and the “in vivo PDT efficacy (in words)” value [4] was “inactive in vivo”.
